ChEMBL document CHEMBL1201862, “PubChem BioAssay data set” (2004)
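Assay format: 96-well plates, 48-hour exposure. GI50 is the concentration that inhibits growth by half.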 The source made the active and inactive calls. Cut-off read from the data, not from the text of the source: active = GI50 up to about 1.1 µM and inactive = higher.

Experiments:
Assay in all cases: growth of human tumour cells (NCI), 48 h
SK-MEL-5 = tested on: SK-MEL-5
PC-3 = tested on: PC-3
RPMI-8226 = tested on: RPMI-8226
SR = tested on: SR
Hs-578T = tested on: Hs-578T
TK-10 = tested on: TK-10
MDA-N = tested on: MDA-N
U-251 = tested on: U-251
HT-29 = tested on: HT-29
A549 = tested on: A549
EKVX = tested on: EKVX
IGROV-1 = tested on: IGROV-1
K562 = tested on: K562
DU-145 = tested on: DU-145
HOP-62 = tested on: HOP-62
HL-60 = tested on: HL-60
RXF 393 = tested on: RXF 393
NCI/ADR-RES = tested on: NCI/ADR-RES
NCI-H460 = tested on: NCI-H460

Measured: GI50

C#CCCCOc1ncccn1
inactive: SK-MEL-5 > 100 µM | PC-3 > 100 µM | RPMI-8226 > 100 µM | SR > 100 µM | Hs-578T > 100 µM | TK-10 > 100 µM | MDA-N > 100 µM | U-251 > 100 µM | HT-29 > 100 µM | A549 > 100 µM | EKVX > 100 µM | IGROV-1 > 100 µM | K562 > 100 µM | DU-145 > 100 µM | HOP-62 > 100 µM | HL-60 > 100 µM | RXF 393 > 100 µM | NCI/ADR-RES > 100 µM

COc1ccc(CC2c3cc4c(cc3CCN2C)OCO4)c(C=O)c1OC (stereo unspecified)
inactive: SK-MEL-5 > 100 µM | PC-3 > 100 µM | RPMI-8226 > 100 µM | Hs-578T > 100 µM | TK-10 > 100 µM | MDA-N > 100 µM | U-251 > 100 µM | HT-29 > 100 µM | A549 > 100 µM | EKVX > 100 µM | IGROV-1 > 100 µM | K562 > 100 µM | DU-145 > 100 µM | NCI-H460 > 100 µM | HL-60 > 100 µM | NCI/ADR-RES > 100 µM

CCOC(=O)n1cncc1CC(NC(=O)Cc1c(C(=O)C=C(C)C)[nH]c2ccccc12)C(=O)OC (stereo unspecified)
inactive: SK-MEL-5 18 µM | PC-3 17 µM | RPMI-8226 32.5 µM | SR 3.56 µM | Hs-578T 19.3 µM | TK-10 18.2 µM | MDA-N 23 µM | U-251 19.5 µM | HT-29 22.3 µM | A549 19.2 µM | EKVX 15.5 µM | IGROV-1 14.9 µM | K562 33.7 µM | DU-145 18.5 µM | NCI-H460 22.3 µM | HL-60 18 µM | RXF 393 14.1 µM | NCI/ADR-RES 33.4 µM

O=S(=O)(c1ccc(Cl)cc1)c1ccccc1C1=NCCN1
inactive: SK-MEL-5 > 100 µM | PC-3 > 100 µM | RPMI-8226 > 100 µM | Hs-578T > 100 µM | TK-10 > 100 µM | MDA-N > 100 µM | U-251 > 100 µM | HT-29 > 100 µM | A549 > 100 µM | EKVX > 100 µM | IGROV-1 > 100 µM | K562 > 100 µM | DU-145 > 100 µM | HOP-62 > 100 µM | NCI-H460 > 100 µM | HL-60 > 100 µM | RXF 393 > 100 µM | NCI/ADR-RES > 100 µM

CCCCNC(=S)c1ccc(OC(=O)Nc2ccc(Cl)cc2)cc1
inactive: SK-MEL-5 20 µM | PC-3 > 100 µM | RPMI-8226 65.2 µM | SR 16.3 µM | Hs-578T 57.7 µM | MDA-N > 100 µM | U-251 > 100 µM | HT-29 8.18 µM | A549 39.1 µM | EKVX 42.2 µM | IGROV-1 3.02 µM | K562 1.83 µM | DU-145 > 100 µM | HOP-62 > 100 µM | NCI-H460 10.4 µM | HL-60 8.57 µM | NCI/ADR-RES 12.4 µM

Cc1ccc(C(=O)Nc2ccc(CP(=O)(O)O)cc2CP(=O)(O)O)cc1NC(=O)c1cccc(NC(=O)Nc2cccc(C(=O)Nc3cc(C(=O)Nc4ccc(CP(=O)(O)O)cc4CP(=O)(O)O)ccc3C)c2)c1
inactive: SK-MEL-5 > 100 µM | PC-3 > 100 µM | RPMI-8226 > 100 µM | Hs-578T > 100 µM | TK-10 > 100 µM | MDA-N > 100 µM | U-251 > 100 µM | HT-29 > 100 µM | A549 > 100 µM | EKVX > 100 µM | IGROV-1 > 100 µM | K562 > 100 µM | DU-145 > 100 µM | HOP-62 > 100 µM | NCI-H460 > 100 µM | HL-60 > 100 µM | RXF 393 > 100 µM | NCI/ADR-RES > 100 µM

C[Si](C)(c1ccc(C(=O)O)cc1)c1ccc(C(=O)O)cc1
inactive: SK-MEL-5 > 100 µM | PC-3 > 100 µM | RPMI-8226 > 100 µM | SR > 100 µM | Hs-578T > 100 µM | TK-10 > 100 µM | MDA-N > 100 µM | U-251 > 100 µM | HT-29 > 100 µM | A549 > 100 µM | EKVX > 100 µM | IGROV-1 > 100 µM | K562 > 100 µM | DU-145 > 100 µM | HOP-62 > 100 µM | NCI-H460 > 100 µM | RXF 393 > 100 µM | NCI/ADR-RES > 100 µM

N#CCCN(CCC#N)c1ccc(/C=C2\N=C(c3ccccc3)N(c3ccc(C(=O)O)cc3)C2=O)cc1
inactive: SK-MEL-5 36.6 µM | PC-3 37.5 µM | RPMI-8226 46.8 µM | Hs-578T 22.3 µM | TK-10 > 100 µM | MDA-N > 100 µM | U-251 30.2 µM | HT-29 95.1 µM | A549 > 100 µM | EKVX 26.2 µM | IGROV-1 20.3 µM | K562 38.2 µM | DU-145 69.2 µM | HOP-62 > 100 µM | NCI-H460 27.6 µM | HL-60 > 10 µM | RXF 393 40.7 µM | NCI/ADR-RES > 100 µM

CSc1nc2ccccc2c(=O)n1/N=C1\C(=O)N(CN2CCCCC2)c2ccc(Cl)cc21
inactive: SK-MEL-5 27.9 µM | PC-3 29.4 µM | Hs-578T 37.7 µM | TK-10 26.4 µM | MDA-N 21.8 µM | U-251 33.3 µM | HT-29 36.7 µM | A549 37.2 µM | EKVX 14.1 µM | IGROV-1 13.5 µM | K562 5.22 µM | DU-145 17.3 µM | HOP-62 33.3 µM | NCI-H460 22.7 µM | HL-60 10.9 µM | RXF 393 17.5 µM | NCI/ADR-RES 34.8 µM

CCOC(=O)CC1C(O)C(=O)N(C)C1c1ccccc1 (stereo unspecified)
inactive: SK-MEL-5 > 100 µM | PC-3 > 100 µM | RPMI-8226 > 100 µM | SR > 100 µM | Hs-578T > 100 µM | TK-10 > 100 µM | MDA-N > 100 µM | U-251 > 100 µM | HT-29 > 100 µM | A549 > 100 µM | EKVX > 100 µM | IGROV-1 > 100 µM | K562 > 100 µM | DU-145 > 100 µM | HOP-62 > 100 µM | HL-60 > 100 µM | RXF 393 > 100 µM | NCI/ADR-RES > 100 µM

O=c1c2ccccc2nc2n1C(c1ccc([N+](=O)[O-])cc1)C2(c1ccccc1)c1ccccc1 (stereo unspecified)
inactive: SK-MEL-5 > 100 µM | PC-3 24 µM | RPMI-8226 8.2 µM | Hs-578T 66.2 µM | TK-10 > 100 µM | MDA-N > 100 µM | U-251 > 100 µM | HT-29 9.98 µM | A549 12.9 µM | EKVX > 100 µM | IGROV-1 > 100 µM | DU-145 > 100 µM | HOP-62 > 100 µM | NCI-H460 > 100 µM | HL-60 37.2 µM | RXF 393 > 100 µM | NCI/ADR-RES > 100 µM

COc1ccc2[nH]c3c(c2c1)CC(=O)N1CCCC(CC3O)C1 (stereo unspecified)
inactive: SK-MEL-5 > 100 µM | PC-3 > 100 µM | RPMI-8226 > 100 µM | Hs-578T > 100 µM | TK-10 > 100 µM | MDA-N > 100 µM | U-251 > 100 µM | HT-29 > 100 µM | A549 > 100 µM | IGROV-1 > 100 µM | K562 > 100 µM | DU-145 > 100 µM | NCI-H460 > 100 µM | NCI/ADR-RES > 100 µM

COc1ccc(/C=N/NS(=O)(=O)c2ccc(/C=C3\NC(=O)NC3=O)cc2)cc1
inactive: SK-MEL-5 > 100 µM | PC-3 > 100 µM | RPMI-8226 > 100 µM | Hs-578T 28.1 µM | TK-10 > 100 µM | MDA-N > 100 µM | U-251 45.2 µM | HT-29 > 100 µM | A549 > 100 µM | EKVX > 100 µM | IGROV-1 87.5 µM | K562 > 100 µM | DU-145 > 100 µM | HOP-62 > 100 µM | NCI-H460 > 100 µM | HL-60 98.6 µM | RXF 393 > 100 µM | NCI/ADR-RES > 100 µM

COc1c(NC(C)=O)c2ccccc2c2ccccc12
inactive: SK-MEL-5 > 100 µM | PC-3 > 100 µM | SR > 100 µM | Hs-578T > 100 µM | TK-10 > 100 µM | MDA-N > 100 µM | U-251 > 100 µM | HT-29 > 100 µM | A549 > 100 µM | EKVX > 100 µM | IGROV-1 > 100 µM | K562 75 µM | DU-145 > 100 µM | HOP-62 > 100 µM | NCI-H460 > 100 µM | HL-60 99.5 µM | RXF 393 > 100 µM | NCI/ADR-RES > 100 µM

CC(C)(C)OC(=O)N1CCC2(C)CC(=O)CC=C12 (stereo unspecified)
inactive: SK-MEL-5 > 100 µM | PC-3 > 100 µM | SR 72.4 µM | Hs-578T > 100 µM | TK-10 > 100 µM | MDA-N > 100 µM | U-251 > 100 µM | HT-29 > 100 µM | A549 > 100 µM | EKVX > 100 µM | IGROV-1 > 100 µM | K562 > 100 µM | DU-145 > 100 µM | HOP-62 > 100 µM | NCI-H460 > 100 µM | HL-60 > 100 µM | RXF 393 > 100 µM | NCI/ADR-RES > 100 µM
